# Experimental data reported in ChEMBL document CHEMBL3301464, “MMV Malaria Box anti-babesial screening”.
# What was measured:
# [1] = (§1) MMV: Anti-babesial activity assay. Parasite pRBCs at 1% parasitemia were cultivated in 100 ul with 96-well plates at 2.5% and 5% hematocrits. The parasites were cultivated in triplicate for 4 days without replacement of the medium for each concentration of the compound.; type: functional, Babesia bigemina
# [2] = as §1; type: functional, Babesia equi
# [3] = as §1; type: functional, Babesia caballi
# [4] = as §1; type: functional, Babesia bovis
Compound,IC50 [1],IC50 [2],IC50 [3],IC50 [4]
COc1ccc(-c2cc3c(nn2)-c2ccccc2C3=O)cc1,10 µM,9.18 µM,14.8 µM,0.34 µM
COc1ccc2c(c1)C1(Nc3ccccc3-c3nc4ccccc4n31)C(=O)N2 (stereo not drawn),14.2 µM,3.52 µM,3.9 µM,16.8 µM
CCOc1cc(CNC(C)C(O)c2ccccc2)cc(Cl)c1OCC (stereo not drawn),0.91 µM,5.64 µM,7.96 µM,0.081 µM
OC(CNCC1CCCO1)Cn1c2ccc(Cl)cc2c2cc(Cl)ccc21 (stereo not drawn),0.79 µM,11.9 µM,10 µM,21.1 µM
COc1ccc2nc(C)cc(Nc3ccccc3O)c2c1,15.3 µM,8.83 µM,1 µM,25 µM
Cc1cc(N2CCCC2)nc(Nc2ccc(NC(=O)CCc3ccccc3)cc2)n1,13.4 µM,3.02 µM,3.53 µM,15.5 µM
CN(C)CCNc1cc(-c2ccccc2)nc2ccccc12,3.03 µM,0.59 µM,0.1 µM,4.65 µM
Cc1nc2ccccc2c(O)c1CC=C(Cl)Cl,10.7 µM,15.2 µM,3.02 µM,4.27 µM
COCCNCC(O)Cn1c2ccc(Cl)cc2c2cc(Cl)ccc21 (stereo not drawn),1.87 µM,16.3 µM,5.64 µM,> 25 µM
CCC(O)c1ccc(Br)cc1NC(=O)c1cccc(Cl)c1 (stereo not drawn),7.38 µM,> 25 µM,11.4 µM,> 25 µM
O=c1nc(C=Cc2ccc(Br)cc2)oc2ccccc12,10 µM,14.3 µM,13.6 µM,15.3 µM
CC(=O)c1ccc(NC(=O)CSc2nc(-c3ccccc3Cl)ns2)cc1,10 µM,0.65 µM,3.34 µM,0.86 µM
Cc1sc2ncnc(Sc3nc4ccccc4[nH]3)c2c1C,0.41 µM,5.5 µM,0.29 µM,0.05 µM
Oc1ccccc1CN1CCN(C(c2ccccc2)c2ccccc2)CC1,25 µM,4.37 µM,3.72 µM,15.3 µM
c1ccc2c(NCCCCCCNc3c4c(nc5ccccc35)CCCC4)c3c(nc2c1)CCCC3,2.17 µM,0.5 µM,6.31 µM,0.99 µM
Cc1cc(Nc2ccc(OCc3ccccc3)cc2)nc2cc(O)ccc12,3.45 µM,6.31 µM,4.91 µM,0.17 µM
Cc1cc(Nc2cccc(F)c2)nc(NCc2ccccc2)n1,0.093 µM,5.06 µM,0.1 µM,10 µM
CCOc1ccc(C2N(C)c3ccccc3N2C)cc1,0.85 µM,3.53 µM,0.5 µM,5.5 µM
Cc1ccc(OCCCCCCNCCO)c(C)c1,9.88 µM,5.09 µM,13.3 µM,12.1 µM
CCN(Cc1ccccc1)C1CCN(Cc2cc(Br)ccc2O)CC1,20.2 µM,3.03 µM,6.51 µM,18.2 µM
OC(Cn1nnc2ccccc21)Cn1c2ccc(Br)cc2c2cc(Br)ccc21 (stereo not drawn),1.3 µM,12.6 µM,15.9 µM,0.1 µM
CC1CCN(Cc2c(O)ccc3cc(-c4nc5ccccc5s4)c(=O)oc23)CC1,5.5 µM,4.27 µM,3.73 µM,6.9 µM
Clc1cc(Br)ccc1-c1ccc(CNCC2CCNCC2)o1,4.19 µM,5.93 µM,12.4 µM,0.33 µM
Cc1ccc2cc3c(N)c4c(C)ccc(C)c4nc3nc2c1,4.27 µM,4.52 µM,7.26 µM,2.63 µM

Compound,IC50 [1],IC50 [2],IC50 [3],IC50 [4]
CC(C)CCNCC(O)Cn1c2ccccc2c2ccccc21 (stereo not drawn),0.76 µM,0.84 µM,0.38 µM,0.081 µM
CCOc1ccccc1NC(=O)CN1CCN(C(=O)c2ccco2)CC1,17.5 µM,10.3 µM,3.81 µM,25 µM
O=C(Nc1ccc(C23CC4CC(CC(c5ccccc5)(C4)C2)C3)cc1)c1cccs1,10.4 µM,15.2 µM,16.8 µM,8.1 µM
COc1ccc(-c2nonc2NC(=O)c2cccc(Cl)c2)cc1OC,8.2 µM,16.6 µM,11.5 µM,10 µM
COc1cc(SC)ccc1C(=O)N1CCCC(C)C1 (stereo not drawn),> 25 µM,5.79 µM,12.3 µM,19.4 µM
CC(C)c1ccc(CNCC(O)c2ccccc2)cc1 (stereo not drawn),> 25 µM,10 µM,12.4 µM,14.3 µM
CC(C)(C)c1ccc(C(=O)Nc2c3c(nn2-c2cccc(Cl)c2)CSC3)cc1,0.72 µM,8.96 µM,17 µM,4.21 µM
CCOc1cc2c(cc1OCC)C(c1cc(Cl)c(O)c(OCC)c1)NCC2 (stereo not drawn),> 25 µM,12.3 µM,13.4 µM,24 µM
Oc1ccc(Br)cc1CN1CCN(Cc2cccc(F)c2)CC1,> 25 µM,13 µM,14.3 µM,17.3 µM
O=c1nc(C=Cc2ccc(Cl)cc2)oc2ccccc12,> 25 µM,8.25 µM,11.5 µM,14.3 µM
CN(C)c1ccc(N2C(N)=NC(N)=NC2(C)C)cc1,12.9 µM,10.1 µM,5.06 µM,1 µM
COc1ccc(Nc2nc(NCc3ccccc3)c3ccccc3n2)cc1,2.16 µM,4.77 µM,3.7 µM,0.06 µM
COc1ccc(CN2CCN(Cc3ccccc3)CC2)c(O)c1,15.2 µM,10 µM,12 µM,8.22 µM
COc1cc2c(cc1OC)C1=NNC(=O)C1=NC(C)(C)C2,12.9 µM,3.61 µM,4.48 µM,6.8 µM
OC(CNCc1ccccc1)Cn1c2ccccc2c2ccccc21 (stereo not drawn),18 µM,4.19 µM,3.9 µM,3.25 µM
Oc1c2c(nc3cc(-c4ccccc4)nn13)CCCC2,> 25 µM,0.44 µM,1.29 µM,5.5 µM
CCOc1ccc(Nc2c3ccccc3nc3ccccc23)cc1,0.1 µM,4.52 µM,7.54 µM,0.72 µM
OC1=C2C(=Nc3ccccc3SC2c2ccc(Br)cc2)c2ccccc21 (stereo not drawn),15.2 µM,12 µM,7.95 µM,11.1 µM
Clc1ccc2c(N3CCCC3)ccnc2c1,9.15 µM,8.83 µM,6.86 µM,7.09 µM
CCCCCCc1cc2cc(-c3nc4ccccc4[nH]3)c(=Nc3ccccc3C)oc2cc1O,17.2 µM,> 25 µM,25 µM,19.7 µM
CCOc1ccc(CCNC(=O)c2cccs2)cc1OCC,> 25 µM,13.9 µM,15.3 µM,25 µM
C=CCc1c(C)nc2ccccc2c1O,3.57 µM,3.61 µM,11.4 µM,6.09 µM
CCOC(=O)c1c[nH]c2c(CC)cccc2c1=O,5.09 µM,13.4 µM,14.6 µM,9.61 µM
